Among the data in PubChem BioAssay AID588780 (Sanford-Burnham Center for Chemical Genomics, 2011) are IC50 values, retold here.

By IC50 is commonly meant the concentration needed to halve the response being measured.

Active and inactive are the calls of the source.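 The calls were made as follows: active = compounds whose fitted half-maximal concentration in the cell-protection dose series is at or below a set limit; inactive = the rest.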

The subject of this experiment is H9c2 cardiomyocytes, 2-deoxyglucose stress, ATP luminescence, 2 h. The experiment is described as follows: protection of cardiomyocytes from 2-deoxyglucose injury, dose response, cell-based, 2-deoxyglucose stress, uHTS hits (AID 588780).
For `CC(NC(=O)c1cc2c(=O)n(C)c3ccccc3c2n1C)c1ccc2c(c1)OCCO2` (stereo unspecified), the IC50 is 30.5 µM (inactive).
Then `O=C(CNC(=O)c1ccc(F)cc1)N/N=C/c1cc(Br)ccc1OC(=O)/C=C/c1ccco1`, with > 79 µM (inactive).
Then `COc1cc(/C=N\NC(=O)c2cccnc2)ccc1OC(=O)c1ccccc1Cl`, with > 79 µM (inactive).
With `O=C(c1cc(=O)[nH]c2ccccc12)N1CCN(S(=O)(=O)c2ccc(Cl)cc2)CC1`, the IC50 was > 79 µM (inactive).
For `Cc1ccc(NC(=O)c2cc(=O)c3ccccc3o2)cc1S(=O)(=O)N1CCOCC1`, the IC50 was 35.4 µM (inactive).
For the molecule `COc1cc(NC(=O)c2csc(-c3ccncc3)n2)cc(C(=O)Nc2cccc(C(F)(F)F)c2)c1`, the 50% inhibitory concentration (IC50) is 8.47 µM.
`CN(CC(=O)Nc1ccccc1Cl)C(=O)CCc1nc2ccccc2c(=O)[nH]1`: the IC50 was 38 µM (inactive).
The result for `O=C(CN1CCCCC1)Nc1nc(-c2ccc(F)c(F)c2)cs1` reads 70.7 µM (inactive); that for `COc1ccc(-c2cc3nc(-c4ccccc4)cc(N4CCN(C(=O)c5ccoc5)CC4)n3n2)cc1`, 6.39 µM.
With `COc1cccc(NC(=O)c2oc3ccc(S(=O)(=O)N4CCOCC4)cc3c2C)c1`, the IC50 is > 79 µM (inactive).
Then `O=C(CCCSc1ccccc1)Nc1nc(-c2ccccn2)cs1`, with > 79 µM (inactive).
The result for `NC(=O)c1ccccc1N=Cc1ccccn1` reads > 79 µM (inactive); that for `COC(=O)c1cc2ccccn2c2c(C(=O)OC)c(C(=O)OC)cc1-2`, > 79 µM (inactive); that for `Cc1sc2nc(COC(=O)Cc3ccccc3)[nH]c(=O)c2c1C`, > 79 µM (inactive).
For the molecule `Nc1c(C(=O)NC2CC2)c2nc3ccccc3nc2n1-c1ccc2c(c1)OCO2`, the IC50 was > 79 µM (inactive).
Then `C[C@@H](OC(=O)c1[nH]cnc1C(=O)NCc1ccc(CNC(=O)OC(C)(C)C)cc1)c1ccccc1`, with > 79 µM (inactive); and `Cn1c(C(=O)Nc2ccc3c(c2)OCCO3)cc2c(=O)n(C)c3ccccc3c21`, with > 79 µM (inactive).
Consider `COc1cccc(C(=O)Nc2c(C(N)=O)oc3ccccc23)c1`, for which the IC50 is > 79 µM (inactive).
Then `O=C(NCC(=O)N(Cc1cccs1)C(C(=O)NC1CCCCC1)c1ccco1)c1cccs1` (stereo unspecified), with 15.3 µM.
The result for `Cn1c2ccccc2c(=O)c2ccc(NCc3ccc4c(c3)OCO4)cc21` reads 8.06 µM; that for `CN(CC(=O)Nc1ccccc1Br)C(=O)Cn1[nH]c(=O)c2ccccc2c1=O`, > 79 µM (inactive); that for `O=C(CN1C(=O)C2CC=CCC2C1=O)Nc1nc(-c2ccc(F)cc2)cs1` (stereo unspecified), 10.8 µM.
For the molecule `CCOc1cc(/C=N\NC(=O)c2ccc(NC(=O)C(C)(C)C)cc2)ccc1OC(=O)c1cccc(C)c1`, the IC50 was 15.3 µM.
With `Cc1cc(C)n2nc(C(=O)N/N=C/c3c4ccccc4cc4ccccc34)nc2n1`, the IC50 was > 79 µM (inactive).
`CC(=O)Nc1cc(-c2cccc(C(=O)N(C)C)c2)cn2c(-c3ccc(C(C)=O)cc3)cnc12`: the IC50 is 15.1 µM.
The result for `C=CCOC(=O)C1=C[C@H](c2cn(C(C)=O)c3ccccc23)C[C@H](OCc2ccc(CO)cc2)O1` reads 17.9 µM; that for `COc1ccccc1NS(=O)(=O)c1cc(NC(=O)Cc2n[nH]c(=O)c3ccccc23)ccc1Cl`, 24.5 µM.
The result for `CC(=O)Nc1cc(-c2ccccc2)cn2c(-c3cccc(C(C)=O)c3)cnc12` reads 17.8 µM; that for `COc1cc(-c2cc(NC(C)=O)c3ncc(-c4ccccc4)n3c2)cc(OC)c1OC`, > 79 µM (inactive); that for `COc1ccc(OC)c(NC(=O)c2sc3ncnc(N4CCN(c5ccccn5)CC4)c3c2C)c1`, > 79 µM (inactive).
For `c1ccc(-c2cc(-c3nnc4sc(-c5ccccn5)nn34)[nH]n2)cc1`, the IC50 is > 79 µM (inactive).
Turning to `COc1ccccc1NC(=O)COc1cccc2c1CCNC2=O`, the IC50 was > 79 µM (inactive).
The result for `CC1CCN(C(=O)COC(=O)c2n[nH]c(=O)c3ccccc23)CC1` reads 47.8 µM (inactive); that for `COc1cc(-c2cc(NC=O)c3ncc(-c4cccc(C(F)(F)F)c4)n3c2)cc(OC)c1OC`, > 79 µM (inactive); that for `Cc1cc(CNC(=O)COC(=O)Cn2[nH]c(=O)c3ccccc3c2=O)cc(C)c1O`, 15.4 µM.
The result for `CCCCn1nc(NC(=O)c2cccs2)c2cc3cc(OC)ccc3nc21` reads > 79 µM (inactive); that for `COc1cc(C(=O)N/N=C/c2ccc(OC(=O)c3ccccc3Cl)cc2)ccc1O`, > 79 µM (inactive); that for `NC(=O)c1nsc(C(=O)N(CCc2ccccc2)C(C(=O)NC2CCCC2)c2ccco2)c1N` (stereo unspecified), 22.4 µM.
Take `COc1ccccc1OCC(=O)N/N=C/c1cccc2cccnc12`: the IC50 was 49.2 µM (inactive).
Then `Cc1cc(C)cc(N(CCC#N)C(=O)COC(=O)Cn2[nH]c(=O)c3ccccc3c2=O)c1`, with > 79 µM (inactive).
Consider `N#CC1=C(N)Oc2c(O)cc3ccccc3c2C1c1ccsc1` (stereo unspecified), for which the IC50 was > 79 µM (inactive).
Take `O=C1N[C@H](Cc2c[nH]c3ccccc23)COC(=O)[C@H](Cc2ccc(F)cc2)C/C=C\C[C@H]1CC(=O)N(CCO)Cc1ccccc1`: the IC50 is 17.6 µM.
In the case of `COc1cc(-c2cc(NC=O)c3ncc(-c4ccc(C(C)=O)cc4)n3c2)cc(OC)c1OC`, the IC50 is > 79 µM (inactive).
The result for `CCN(CC)C(=O)c1ccc(-c2nnc(Nc3ccc(O)cc3)c3ccccc23)cc1` reads 71.4 µM (inactive).
Then `Cn1c(=O)c2c(nc(NCc3cccnc3)n2Cc2cccc(C(F)(F)F)c2)n(C)c1=O`, with > 79 µM (inactive); and `CCC(=O)Oc1ccc2c(C)cc(=O)oc2c1C`, with > 79 µM (inactive); and `N#CC1(NC(=O)COC(=O)Cn2[nH]c(=O)c3ccccc3c2=O)CCCCC1`, with > 79 µM (inactive).
Then `COc1ccccc1N1CCN(C(=O)c2ccc3nc(-c4ccco4)c(-c4ccco4)nc3c2)CC1`, with 17.6 µM.
On to `Cc1nn(-c2ccccc2)c(C)c1/C=N/NC(=O)c1cc(C(C)(C)C)[nH]n1`, for which the IC50 was 32.1 µM (inactive).
The result for `Cc1ccc(NC(=O)c2nc[nH]c2C(=O)NCCCCCCNC(=O)c2[nH]cnc2C(=O)Nc2ccc(C)cc2)cc1` reads > 79 µM (inactive).
As to `C[C@H](CO)N1C[C@H](C)[C@@H](CN(C)S(=O)(=O)c2ccc(F)cc2)Oc2ccc(NC(=O)Nc3ccc4c(c3)OCO4)cc2C1=O`, the IC50 was 36 µM (inactive).
`COc1ccc(C(CC(=O)N2CCN(c3ccccc3)CC2)c2c(OC)cc(OC)c3ccc(=O)oc23)cc1` (stereo unspecified): the IC50 is 23.2 µM.
Then `CCOC(=O)C1=C(COC(=O)c2ccc([N+](=O)[O-])o2)NC(=O)NC1C` (stereo unspecified), with > 79 µM (inactive); and `O=C(Cn1[nH]c(=O)c2ccccc2c1=O)OCC(=O)N1CCCc2ccccc21`, with 51.3 µM (inactive); and `CCC(c1nnnn1Cc1ccco1)N(Cc1cc2cc(C)cc(C)c2[nH]c1=O)CC1CCCO1` (stereo unspecified), with > 79 µM (inactive).
Consider `O=C(CN1C(=O)C2CC=CCC2C1=O)Nc1nc(-c2ccc(F)c(F)c2)cs1` (stereo unspecified), for which the IC50 was > 79 µM (inactive).
In the case of `CCOC(=O)C1=C(COC(=O)/C=C/c2ccc(F)cc2)NC(=O)NC1C` (stereo unspecified), the IC50 is 16.2 µM.
The result for `CCOC(=O)c1c(NC(=O)COC(=O)Cc2n[nH]c(=O)c3ccccc23)sc(C(=O)NC)c1C` reads > 79 µM (inactive); that for `O=S(=O)(c1cccc(F)c1)N1CCN(c2nc(-c3cccnc3)nc3ccccc23)CC1`, 16.1 µM; that for `COc1cc(C(=O)Nc2ccc(NC(=O)c3ccco3)nc2)cc(OC)c1OC`, 53.5 µM (inactive).
The result for `O=c1cc(-c2ccc([N+](=O)[O-])cc2)c2ccc(O)cc2o1` reads > 79 µM (inactive); that for `COc1ccc2occ(C(=O)c3coc4ccc(O)c(CN(C)C)c34)c2c1`, > 79 µM (inactive).
Take `CC(=O)c1ccc(-c2[nH]c3ccccc3c2CCN2C(=O)c3ccccc3C2=O)cc1`: the IC50 was > 79 µM (inactive).
The result for `CC(=O)Nc1ccc(S(=O)(=O)N(Cc2ccco2)Cc2cc3ccccc3[nH]c2=O)cc1` reads > 79 µM (inactive).
The result for `O=C1[C@H]2[C@@H](c3ccc(C(F)(F)F)cc3)N[C@]3(CCCN(Cc4ccc(F)cc4)C3=O)[C@H]2C(=O)N1Cc1ccccc1` reads > 79 µM (inactive).
As to `COc1ccc(C(=O)NNC(=O)c2ccc3ccccc3n2)cc1`, the IC50 is > 79 µM (inactive).
Then `COc1cc2ccnc(C=O)c2cc1OC`, with > 79 µM (inactive); and `Cc1cc(C(=O)N/N=C/c2c(CO)cnc(C)c2O)c2ccccc2n1`, with > 79 µM (inactive); and `Cc1ccc(C(C(=O)NCc2ccccc2)N(Cc2ccco2)C(=O)c2snc(C(N)=O)c2N)o1` (stereo unspecified), with > 79 µM (inactive).
The result for `Cc1c(N=Cc2cc(Br)cc(Br)c2O)cccc1C(=O)O` reads > 79 µM (inactive); that for `C#CCOc1nc(Nc2cccc([N+](=O)[O-])c2)nc(OCC#C)n1`, > 79 µM (inactive); that for `COc1ccc(-c2oc3ncnc(NCCN4CCOCC4)c3c2-c2ccc(OC)cc2)cc1`, 34.3 µM (inactive).
As to `CCCN1Cc2cccc(C(N)=O)c2C1=O`, the IC50 is > 79 µM (inactive).
Then `CCOC(=O)c1nn(-c2cccc(OC)c2)c2nc(Nc3ccccc3)cc(=O)n12`, with > 79 µM (inactive); and `CCCCN1CC(COCc2ccccc2)Oc2cccc(OCCN3C(=O)[C@@H]4[C@H](C3=O)C3C=C[C@H]4C3)c2S1(=O)=O` (stereo partly specified), with > 79 µM (inactive); and `COc1ccc(CCn2c(=O)c3cccnc3n(Cc3ccc([N+](=O)[O-])cc3)c2=O)cc1OC`, with 10.1 µM.
With `Cc1ccc(C)c(C(=O)COC(=O)Cn2[nH]c(=O)c3ccccc3c2=O)c1`, the IC50 was > 79 µM (inactive).
In the case of `COc1ccc(N(CC(=O)Nc2cccc(C(C)=O)c2)S(=O)(=O)c2ccc(NC(C)=O)cc2)cc1`, the IC50 is 10.7 µM.
Then `N#C/C(=C1\CCCN1)c1nc2ccccc2c(=O)[nH]1`, with > 79 µM (inactive); and `COc1cc(Nc2nc3ccccc3n3nnnc23)cc(OC)c1OC`, with > 79 µM (inactive); and `O=c1[nH]c2cc([N+](=O)[O-])ccc2c2ccccc12`, with > 79 µM (inactive).
